Columns and labels:
[1] = tested on: chronic unpredictable stress (CUS) model in rats; assay: Forced swimming test in chronic unpredictable stress (CUS) model in rats; assay type: in vivo; settings: 7 days
Experimental: (§1) The chronic unpredictable stress model is usually used as a depression model. The experimental method is as follows. Stimulation includes forced swimming (10° C., 6 min), tail clamping (1 cm from the tail tip, 1 min), water deprivation (24 h), fasting (24 h), isolated housing (24 h), tail suspension (1 h), immobility (2 h), high-speed horizontal oscillation (120 times/min, 1 h), foot shock for 45 minutes (mean 1 mA, time course 1 s, once/min). These stressors were randomly scheduled over a one-week period and repeated throughout the 23-day experiment. The non-stress control group was housed under normal conditions. Time: between 9:00 a.m. and 2:00 p.m. Since Day 15, the animals in each group were daily intragastrically administered with the subject medicament and double distilled water based on body weight (blank group and CUS model group) respectively, 60 minutes before the stress. […] Behavior and sleep electroencephalogram analyses were carried out on Day 22-23 of the stress. On Day 21, 60 minutes after the final administration, a sucrose solution intake test was carried out and sleep electroencephalogram was recorded simultaneously. On Day 22, EPM and forced swimming tests were carried out.

[2] = tested on: chronic unpredictable stress (CUS) model in rats; assay: Sucrose solution preference in CUS model in rats; assay type: in vivo; settings: 7 days
Experimental: as §1

[3] = tested on: chronic unpredictable stress (CUS) model in rats; assay: Autonomous movement in CUS model in rats; assay type: in vivo; settings: 7 days
Experimental: as §1

[4] = tested on: chronic unpredictable stress (CUS) model in rats; assay: Elevated plus-maze (EPM) anxiety test in CUS model in rats; assay type: in vivo
Experimental: as §1

GSK-3β = GSK-3β (Homo sapiens, UniProt P49841); assay: GSK-3β activity assay (Z′-LYTE); assay type: biochemical; settings: n = 3; read-out: Mean EC50 in the inhibition of GSK-3β activity
Experimental: The GSK-3β phosphorylation level was determined by using a Z′-LYTE assay (Life Technologies). The assay was performed in a 384-well plate. The wells of the testing plate were divided into blank control wells (without the enzyme), enzyme control wells (without the testing substance), and testing wells (with the enzyme and the testing substance at various concentrations). The inhibition rate of the testing substance is expressed as: inhibition %=(E−S)/(E−B)×100, wherein E is the average emission ratio of enzyme control wells; B is the average emission ratio of blank control wells; S is the emission ratio of the testing sample wells. The median effective concentration of each compound (EC50 μM) was calculated by using the resultant inhibition rate of each sample at various concentrations.

[5] = Serum AST and ALT in mice after 14 days of intragastric administration; assay type: in vivo
Experimental: Blood was collected from epicanthal, stood at room temperature for about 2 hours, and centrifuged for 12 minutes at 3000 r/min after coagulation. The serum was removed and centrifuged again. Alanine transaminase (ALT) and aspartate transaminase (AST) levels were determined

[6] = mouse serum, 30 mg/kg/day intragastric, 14 days
[7] = mouse serum, 60 mg/kg/day intragastric, 14 days

Sequence of GSK-3β (P49841 whole entry): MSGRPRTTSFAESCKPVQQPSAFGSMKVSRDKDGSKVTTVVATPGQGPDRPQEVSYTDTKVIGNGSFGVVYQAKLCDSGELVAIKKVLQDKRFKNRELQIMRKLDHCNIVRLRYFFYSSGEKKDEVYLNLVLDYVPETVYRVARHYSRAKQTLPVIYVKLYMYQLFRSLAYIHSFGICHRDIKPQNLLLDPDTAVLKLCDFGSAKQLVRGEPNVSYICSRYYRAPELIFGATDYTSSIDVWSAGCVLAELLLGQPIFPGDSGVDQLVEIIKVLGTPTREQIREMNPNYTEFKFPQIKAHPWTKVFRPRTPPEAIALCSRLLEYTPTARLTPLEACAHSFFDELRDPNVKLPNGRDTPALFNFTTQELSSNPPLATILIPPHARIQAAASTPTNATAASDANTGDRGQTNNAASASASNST

Row | Compound | Sucrose solution preference ([2]; 7.5 mg/kg intragastric daily) | Sucrose solution preference ([2]; 15 mg/kg intragastric daily) | Sucrose solution preference ([2]; 30 mg/kg intragastric daily) | Autonomous movement Distance ([3]; 7.5 mg/kg intragastric daily) | Autonomous movement Speed ([3]; 7.5 mg/kg intragastric daily) | Autonomous movement Distance ([3]; 15 mg/kg intragastric daily) | Autonomous movement Speed ([3]; 15 mg/kg intragastric daily) | Autonomous movement Distance ([3]; 30 mg/kg intragastric daily) | Autonomous movement Speed ([3]; 30 mg/kg intragastric daily) | Percentage of entries into open arms relative to total entries into arms ([4]; 7.5 mg/kg intragastric daily) | Percentage of residence time in open arms ([4]; 7.5 mg/kg intragastric daily) | Percentage of entries into open arms relative to total entries into arms ([4]; 15 mg/kg intragastric daily) | Percentage of residence time in open arms ([4]; 15 mg/kg intragastric daily) | Percentage of entries into open arms relative to total entries into arms ([4]; 30 mg/kg intragastric daily) | Percentage of residence time in open arms ([4]; 30 mg/kg intragastric daily) | EC50 (GSK-3β) [µM] | ALT ([5]; mouse, in vivo, 60 mg/kg/day) [U/L] | AST ([5]; mouse, in vivo, 60 mg/kg/day) [U/L] | Sucrose solution preference ([2]; 60 mg/kg intragastric daily) [%] | Autonomous movement Distance ([3]; 60 mg/kg intragastric daily) [mm] | further results
1 | 5-bromo-7-ethoxy fangchinoline [Compound 4] | 79.2 ± 3.4^##,$$ % | 81.5 ± 4.7^##,$$ % | 93.6 ± 3.2^##,$$ % | 13257.21 ± 756.36^##,$$ mm | 44.19 ± 2.64^##,$$ mm/second | 13615.71 ± 743.43^##,$$ mm | 45.39 ± 4.02^##,$$ mm/second | 14362.26 ± 771.52^##,$$ mm | 47.87 ± 5.36^##,$$ mm/second | 54.2 ± 2.6^##,$ % | 66.2 ± 3.4^##,$$ % | 55.3 ± 4.0^##,$ % | 69.5 ± 4.2^##,$$ % | 59.7 ± 5.3^##,$$ % | 68.6 ± 3.2^##,$$ % | – | – | – | – | – | Forced swimming Immobility time ([1]; 7.5 mg/kg intragastric daily): 134.3 ± 4.4^##,$$ seconds; Forced swimming Immobility time ([1]; 15 mg/kg intragastric daily): 96.1 ± 3.74^##,$$ seconds; Forced swimming Immobility time ([1]; 30 mg/kg intragastric daily): 60.5 ± 5.3^##,$$ seconds
2 | COc1ccc2cc1Oc1ccc(cc1)CC1c3cc(c(OC)cc3CCN1C)Oc1c(OC)c(OC)c(Cl)c3c1C(C2)N(C)CC3 (stereo not drawn) [Compound 1, 5-chloro-7-methoxy fangchinoline] | 69.6 ± 4.6 % | 78.8 ± 4.0^##,$$ % | 81.6 ± 3.7^##,$$ % | 7581.17 ± 845.04^##,$$ mm | 25.27 ± 2.38^##,$$ mm/second | 9518.08 ± 704.12^##,$$ mm | 31.73 ± 3.44^##,$$ mm/second | 10347.64 ± 923.01^##,$$ mm | 34.49 ± 3.75^##,$$ mm/second | 41.2 ± 2.3 % | 53.6 ± 4.6^##,$$ % | 46.7 ± 3.4 % | 60.8 ± 4.0^##,$$ % | 53.9 ± 3.5^##,$$ % | 60.6 ± 3.7^##,$$ % | 3.21 | 80.9 ± 21.4 | 117.7 ± 16.1 | – | – | AST/ALT ([5]; mouse, in vivo, 60 mg/kg/day): 1.45 ± 0.21
3 | CCOc1c(OC)c(Br)c2c3c1Oc1cc4c(cc1OC)CCN(C)C4Cc1ccc(cc1)Oc1cc(c(Br)cc1OC)CC3N(C)CC2 (stereo not drawn) [Compound 5, 5,14-dibromo-7-ethoxy fangchinoline] | 84.1 ± 3.3 % | 86.0 ± 3.5^##,$$ % | 91.5 ± 4.2^##,$$ % | 13732.42 ± 732.45^##,$$ mm | 45.77 ± 2.64^##,$$ mm/second | 14003.63 ± 737.47^##,$$ mm | 46.68 ± 4.02^##,$$ mm/second | 14561.84 ± 807.52^##,$$ mm | 48.54 ± 5.36^##,$$ mm/second | – | – | – | – | – | – | 1.26 | 91.7 ± 15.5 | 101.5 ± 18.7 | – | – | melting point: 186 to 188 °C
4 | COc1ccc2cc1Oc1ccc(cc1)CC1c3cc(c(OC)cc3CCN1C)Oc1c(OC(C)C)c(OC)cc3c1C(C2)N(C)CC3 (stereo not drawn) [Compound 8, 7-isopropoxy fangchinoline] | 80.5 ± 3.6 % | 84.7 ± 3.2^##,$ % | 90.1 ± 3.8^##,$$ % | 9968.41 ± 965.52^##,$$ mm | 33.22 ± 2.64^##,$$ mm/second | 12194.23 ± 887.65^##,$$ mm | 40.64 ± 4.02^##,$$ mm/second | 13053.78 ± 1005.46^##,$$ mm | 43.51 ± 5.36^##,$$ mm/second | – | – | – | – | – | – | 1.35 | 80.1 ± 21.3 | 89.2 ± 16.7 | – | – | –
5 | COc1cc2c3cc1Oc1c(OC)c(OC)cc4c1[C@@H](Cc1ccc(O)c(c1)Oc1ccc(cc1)C[C@@H]3N(C)CC2)N(C)CC4 [berbamine, reference compound] | – | – | 55.05 ± 3.06% | – | – | – | – | 1387.56 ± 584.24 mm | 4.63 ± 1.49 mm/second | – | – | – | – | 38.3 ± 1.9% | 41.0 ± 3.0% | > 10 | – | – | 49.56 ± 4.27 | 1053.45 ± 476.33 | Autonomous movement Speed ([3]; 60 mg/kg intragastric daily): 3.51 ± 1.65 mm/second; Percentage of entries into open arms relative to total entries into arms ([4]; 60 mg/kg intragastric daily): 37.5 ± 1.6%; Percentage of residence time in open arms ([4]; 60 mg/kg intragastric daily): 39.6 ± 4.2%
6 | COc1ccc2cc1Oc1ccc(cc1)C[C@H]1c3cc(c(OC)cc3CCN1C)Oc1c(OC)c(OC)cc3c1[C@H](C2)N(C)CC3 [tetrandrine, reference compound] | 55.4 ± 3.2% | 52.9 ± 3.7% | 67.7 ± 3.3 % | 1369.54 ± 532.47 mm | 4.57 ± 1.85 mm/second | 1124.37 ± 504.85 mm | 3.75 ± 1.98 mm/second | 1027.36 ± 456.76 mm | 3.42 ± 1.33 mm/second | 38.0 ± 2.3% | 42.1 ± 3.7% | 39.5 ± 3.0% | 40.6 ± 4.8% | 43.8 ± 3.2% | 41.3 ± 3.0% | 9.02 | – | – | 70.2 ± 4.6 | 1285.41 ± 401.24 | Autonomous movement Speed ([3]; 60 mg/kg intragastric daily): 4.28 ± 1.56 mm/second; Percentage of entries into open arms relative to total entries into arms ([4]; 60 mg/kg intragastric daily): 46.2 ± 2.9 %; Percentage of residence time in open arms ([4]; 60 mg/kg intragastric daily): 42.8 ± 3.5%; AST activity and the AST/ALT ratio ([5]; mice, 30 mg/kg intragastric, 14 consecutive days): evidently enhanced; change in AST activity, ALT activity and the ratio thereof (AST/ALT) in blood serum ([5]; mice, 60 mg/kg intragastric, 14 consecutive days): all evidently enhanced; ALT [5, 6]: 83.8 ± 15.9 U/L; AST [5, 6]: 204.8 ± 21.8 U/L; AST/ALT [5, 6]: 2.44 ± 0.21; ALT [5, 7]: 113.2 ± 20.6 U/L; AST [5, 7]: 205.6 ± 22.8 U/L; AST/ALT [5, 7]: 1.82 ± 0.26

— US9169268B2, “Use of 7-alkoxy fangchinoline compounds in preventing, alleviating and/or treating depression” (Peking University, priority 2012, dated 2015)
